Patent publication US20140148484A1, “PYRAZOLE COMPOUNDS FOR TREATING HAIRLOSS” (Boehringer Ingelheim International GmbH, priority 2012, published 2014)

What follows are compounds tested against T1, human CRTH2 receptor (Homo sapiens, UniProt Q9Y5Y4) (assay: Human CRTH2 receptor membrane radioligand binding assay (SPA, [3H]-PGD2)). Conditions: displacement of [3H]-PGD2 (1 nM) from CHO-K1-hCRTH2 cell membranes, 3 h room temperature.
T1 construct: host or cells: CHO-K1 (CHO-K1-hCRTH2 cells); membranes prepared in house from the purchased cell line
T1 sequence (Q9Y5Y4 1-395): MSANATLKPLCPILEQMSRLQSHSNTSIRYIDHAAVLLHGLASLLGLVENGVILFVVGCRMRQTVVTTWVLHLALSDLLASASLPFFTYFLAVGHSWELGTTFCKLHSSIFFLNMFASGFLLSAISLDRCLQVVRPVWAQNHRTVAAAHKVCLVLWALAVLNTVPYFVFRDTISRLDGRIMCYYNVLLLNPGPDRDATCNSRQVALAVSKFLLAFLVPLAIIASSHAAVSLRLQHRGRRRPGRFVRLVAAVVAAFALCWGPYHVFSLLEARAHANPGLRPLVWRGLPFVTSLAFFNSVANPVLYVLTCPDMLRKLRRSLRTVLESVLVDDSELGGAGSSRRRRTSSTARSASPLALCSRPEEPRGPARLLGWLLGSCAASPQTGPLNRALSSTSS
Experimental: Preparation of Human CRTH2 Receptor Membranes and Radioligand Binding Assay
The binding of CRTH2 antagonists is determined using membranes prepared from Chinese hamster ovary cells (CHO-K1 cells) transfected with the human CRTH2 receptor (CHO-K1-hCRTH2 cells, Perkin Elmer, Cat No ES-561-C). To produce cell membranes the CHO-K1-hCRTH2 cells are cultured in suspension in CHO SFMII medium supplemented with 400 μg/ml G418. The cells are harvested by centrifugation at 300 g for 10 min at room temperature. The cell pellet is resuspended in Phosphate Buffer Saline (PBS) including a protease inhibitor mix (Complete, Roche) and adjusted to a concentration of 10E7 cells/ml. The CHO-K1-hCRTH2 cells are disrupted by nitrogen […] to obtain the membrane preparation. Cell debris is removed by centrifugation (500 g at 4° C., 30 min) and the supernatant is transferred into fresh tubes followed by a second centrifugation at 40000 g for 1 h at 4° C. to sediment the membranes. The membranes are suspended in SPA incubation buffer (50 mM Tris HCl, 10 mM MgCl2, 150 mM NaCl, 1 mM EDTA, pH 7.4) without bovine serum albumin, homogenized by passing through a single use needle (Terumo, 23G×1″), and stored in aliquots at −80° C.
The CRTH2 receptor binding assay is performed in a scintillation proximity assay (SPA) format with the radioligand [^3H]-PGD2 (Perkin Elmer, NET616000MC). CHO-K1-hCRTH2 cell membranes are again homogenized by passing through a single use needle (Terumo, 23G×1″) and diluted in SPA incubation buffer in suitable concentrations (0.5-10 μg protein/well). The SPA assay is set up in 96 well microtiter plates (Perkin Elmer, CatNo. 6005040) in SPA incubation buffer with a final volume of 200 μl per well and final concentration of 50 mM Tris-HCl, 10 mM MgCl2, 150 mM NaCl, 1 mM EDTA pH 7.4, 0.1% bovine serum albumin). The SPA assay mixture contains 60 μl of the membrane suspension, 80 μl of Wheat Germ Agglutinin coated PVT beads (GE Healthcare, RPNQ-0001, 0.3 mg/well), 40 μl of [3H]-PGD2 diluted in SPA buffer to a final concentration of 1 nM (50 000 dpm) and 20 μl of the test compound (dissolved in dimethylsulfoxid). The SPA assay mixture is incubated for 3 h at room temperature. Bound radioactivity is determined with a scintillation counter (Micro Beta Trilux, Wallac).
The binding of [^3H]-PGD2 to CHO-K1-hCRTH2 cell membranes is determined in the absence (total binding, Bo) and presence (non-specific binding, NSB) of unlabelled PGD2 (1 μM, Cayman Chemical, Cat No 12010) or a reference CRTH2 antagonist (10 μM CAY10471, Cayman Chemical, Cat No 10006735).
Determination of the affinity of a test compound is calculated by subtraction of the non-specific binding (NSB) from the total binding (Bo) or the binding in the presence of the test compound (B) at a given compound concentration. […] The Bo−NSB value is set to 0% inhibition.
Compound `Cc1c(CC(=O)O)c(C2CCCCC2)nn1Cc1ccc(NC(=O)c2ccc(C(F)(F)F)cc2)cc1` [Example 2.7] has a Ki of 12.9 nM. Work on `Cc1nn(Cc2ccc(NC(=O)OCc3ccccc3)cc2F)c(C)c1CC(=O)O` [Example 3.14] yielded a Ki of 8.9 nM. In the case of `CCc1nn(Cc2ccc(NC(=O)OCc3ccc(Cl)c(Cl)c3)cc2)c(CC)c1CC(=O)O` [Example 3.9], the Ki is reported as 0.1 nM. In the case of `CC(C)(C)c1nn(Cc2ccc(C(=O)Nc3ccc(F)c(Cl)c3)cc2)c(C(C)(C)C)c1CC(=O)O` [Example 9.15], the Ki is reported as 32 nM. `CCc1nn(Cc2ccc(NC(=O)c3ccccc3)cc2)c(CC)c1CC(=O)O` [Example 2.3] was tested, and the Ki was 3.4 nM. Work on `Cc1nn(Cc2ccc(NC(=O)c3ccccc3)cc2Cl)c(C)c1CC(=O)O` [Example 7.10] yielded a Ki of 5.5 nM. Work on `Cc1nn(Cc2ccc(CS(=O)(=O)c3ccc(C(F)(F)F)cc3)cc2)c(C)c1CC(=O)O` [Example 16.3] yielded a Ki of 2290 nM. For `Cc1cc(Cn2nc(C)c(CC(=O)O)c2C)ccc1NC(=O)c1ccc(Cl)cc1` [Example 7.2], the Ki was 162 nM. `CCc1nn(Cc2ccc(C(=O)NCc3ccc4ccccc4c3)cc2)c(CC)c1CC(=O)O` [Example 9.17] showed a Ki of 34.9 nM. In the case of `CCc1nn(Cc2ccc(C(=O)Nc3ccc(F)c(Cl)c3)cc2)c(CC)c1CC(=O)O` [Example 9.12], the Ki is reported as 4.8 nM. `CCc1nn(Cc2ccc(C(=O)NCc3cc4ccccc4o3)cc2F)c(CC)c1CC(=O)O` [Example 9.28] gave a Ki of 10.4 nM. In the case of `Cc1nn(Cc2ccc(NC(=O)c3ccc(Br)cc3Cl)cc2)c(C)c1CC(=O)O` [Example 1.27], the Ki is reported as 9.3 nM. Compound `Cc1cc(Cl)ccc1C(=O)Nc1ccc(Cn2nc(C)c(CC(=O)O)c2C)cc1` [Example 1.2] has a Ki of 16.3 nM. Work on `Cc1nn(Cc2ccc(C(=O)Nc3ccc(F)c(Cl)c3)cc2)c(C)c1CC(=O)O` [Example 9.4] yielded a Ki of 18.6 nM. Work on `CCc1nn(Cc2ccc(NC(=O)c3ccc(C(F)(F)F)cc3)cc2)c(CC)c1CC(=O)O` [Example 2.1] yielded a Ki of 0.2 nM. `Cc1cc(Cl)ccc1C(=O)Nc1ccc(Cn2nc(C)c(CC(=O)O)c2C)c(Cl)c1` [Example 7.7] was tested, and the Ki was 3.4 nM. With `Cc1nn(Cc2ccc(NC(=O)CCc3ccccc3)cc2)c(C)c1CC(=O)O` [Example 1.10] the Ki was 7.4 nM. `CCc1nn(Cc2ccc(NC(=O)OCc3ccccc3Cl)cc2)c(CC)c1CC(=O)O` [Example 3.10] showed a Ki of 5.2 nM. Compound `CCc1nn(Cc2ccc(NC(=O)c3cccc(C)c3CC(C)C)cc2)c(CC)c1CC(=O)O` [Example 2.28] has a Ki of 17.1 nM. `Cc1nn(Cc2ccc(CSc3ccc(C(F)(F)F)cc3)cc2)c(C)c1CC(=O)O` [Example 16.1] gave a Ki of 992 nM. `Cc1nn(Cc2ccc(NC(=O)OCc3ccc4ccccc4c3)cc2)c(C)c1CC(=O)O` [Example 3.7] showed a Ki of 0.6 nM. `CCc1nn(C(C)c2ccc(C(=O)Nc3ccc(C(F)(F)F)cc3)cc2)c(CC)c1CC(=O)O` (stereo not shown) [Example 17.2] was tested, and the Ki was 4.3 nM. In the case of `Cc1nn(Cc2ccc(NC(=O)OCc3ccccc3Br)cc2)c(C)c1CC(=O)O` [Example 3.6], the Ki is reported as 14.9 nM. Work on `CCc1nn(Cc2ccc(NC(=O)C3CCC3)cc2)c(CC)c1CC(=O)O` [Example 2.31] yielded a Ki of 5 nM. `Cc1nn(Cc2ccc(NC(=O)c3ccc(C(C)(C)C)cc3)cc2)c(C)c1CC(=O)O` [Example 1.15] showed a Ki of 0.2 nM. With `Cc1cc(Cl)ccc1C(=O)Nc1ccc(Cn2nc(C)c(CC(=O)O)c2C)c(F)c1` [Example 7.19] the Ki was 5.8 nM. For `Cc1nn(Cc2ccc(NC(=O)/C=C/c3ccccc3)cc2)c(C)c1CC(=O)O` [Example 1.13], the Ki was 4 nM. `Cc1nn(Cc2ccc(NC(=O)OCc3ccccc3)cc2)c(C)c1CC(=O)O` [Example 3.1] showed a Ki of 3.8 nM. For `CCc1nn(Cc2ccc(S(=O)(=O)Nc3ccc(C)c(Cl)c3)cc2)c(CC)c1CC(=O)O` [Example 10.3], the Ki was 16.1 nM. With `CCc1nn(Cc2ccc(NC(=O)c3ccc(Cl)cc3)cc2)c(CC)c1CC(=O)O` [Example 2.5] the Ki was 0.75 nM. With `Cc1ccc(C(=O)Nc2ccc(Cn3nc(C)c(CC(=O)O)c3C)c(Cl)c2)c(C)c1` [Example 7.12] the Ki was 4.7 nM. With `CCc1nn(C(C)c2ccc(NC(=O)c3ccc(C(F)(F)F)cc3)cc2)c(CC)c1CC(=O)O` (stereo not shown) [Example 17.1] the Ki was 0.1 nM. `Cc1nn(Cc2ccc(NC(=O)c3ccc4ccccc4c3C)cc2)c(C)c1CC(=O)O` [Example 1.26] showed a Ki of 36 nM. `CCc1nn(Cc2ccc(NC(=O)c3ccccc3C3CCCCC3)cc2)c(CC)c1CC(=O)O` [Example 2.29] gave a Ki of 6.3 nM. Compound `Cc1nn(Cc2ccc(NC(=O)CCc3ccccc3)cc2Cl)c(C)c1CC(=O)O` [Example 7.9] has a Ki of 2.5 nM. Work on `Cc1nn(Cc2ccc(C[S+]([O-])c3ccc(C(F)(F)F)cc3)cc2)c(C)c1CC(=O)O` (stereo not shown) [Example 16.2] yielded a Ki of 324 nM. `Cc1nn(Cc2ccc(NC(=O)c3ccc4ccccc4c3)cc2)c(-c2ccccc2)c1CC(=O)O` [Example 2.8] gave a Ki of 1.3 nM. `Cc1nn(Cc2ccc(C(=O)Nc3ccc(Br)c(F)c3)cc2)c(C)c1CC(=O)O` [Example 9.9] gave a Ki of 19.4 nM. Compound `CCc1c(CC(=O)O)c(C2CC2)nn1Cc1ccc(NC(=O)c2ccc(C(F)(F)F)cc2)cc1` [Example 2.47] has a Ki of 0.1 nM. `Cc1ccc(NC(=O)c2ccc(Cn3nc(C)c(CC(=O)O)c3C)cc2)cc1Cl` [Example 9.7] was tested, and the Ki was 7.5 nM. `Cc1nn(Cc2ccc(NC(=O)/C=C/c3ccccc3)cc2Cl)c(C)c1CC(=O)O` [Example 7.11] gave a Ki of 0.9 nM. For `Cc1nn(Cc2ccc(NC(=O)c3ccc(C(F)(F)F)cc3)cc2)c(-c2ccccc2)c1CC(=O)O` [Example 2.9], the Ki was 1.8 nM. `CCc1c(CC(=O)O)c(C2CC2)nn1Cc1ccc(NC(=O)c2cccc3ccccc23)cc1` [Example 2.51] showed a Ki of 3.5 nM. In the case of `Cc1nn(Cc2ccc(C(C)Oc3ccccc3)cc2)c(C)c1CC(=O)O` (stereo not shown) [Example 14.6], the Ki is reported as 428 nM. Compound `Cc1nn(Cc2ccc(C(=O)Nc3cccc(F)c3)cc2)c(C)c1CC(=O)O` [Example 9.1] has a Ki of 1480 nM. For `Cc1ccc(C(=O)Nc2ccc(Cn3nc(C)c(CC(=O)O)c3C)cc2)cc1` [Example 1.4], the Ki was 7.7 nM. For `Cc1nn(Cc2ccc(NC(=O)c3ccc(Cl)c(Cl)c3)cc2Cl)c(C)c1CC(=O)O` [Example 7.15], the Ki was 0.6 nM. `Cc1nn(Cc2ccc(NC(=O)C3[C@H]4C[C@@H]5C[C@@H](C[C@H]3C5)C4)cc2)c(C)c1CC(=O)O` (stereo partly shown) [Example 1.34] was tested, and the Ki was 4 nM. `CCc1nn(Cc2ccc(NC(=O)C3CCCC3)cc2)c(CC)c1CC(=O)O` [Example 2.32] gave a Ki of 2.6 nM. `Cc1cc(Cn2nc(C)c(CC(=O)O)c2C)ccc1NC(=O)c1ccccc1` [Example 7.1] was tested, and the Ki was 407 nM. With `Cc1cc(C)c(C(=O)Nc2ccc(Cn3nc(C)c(CC(=O)O)c3C)cc2)c(C)c1` [Example 1.24] the Ki was 553 nM. With `Cc1nn(Cc2ccc(CS(=O)(=O)c3ccc(Cl)c(Cl)c3)cc2)c(C)c1CC(=O)O` [Example 16.6] the Ki was 853 nM. Compound `CCc1nn(Cc2ccc(NC(=O)c3ccc(C(F)(F)F)cc3)cc2)c(C)c1CC(=O)O` [Example 2.53] has a Ki of 0.2 nM. In the case of `Cc1cc(C(F)(F)F)ccc1C(=O)Nc1ccc(Cn2nc(C)c(CC(=O)O)c2C)cc1` [Example 1.11], the Ki is reported as 2.7 nM. In the case of `Cc1nn(Cc2ccc(NC(=O)OCc3ccccc3)cc2)c(C)c1CCC(=O)O` [Example 3.2], the Ki is reported as 786 nM. With `CCc1nn(Cc2ccc(OCc3cc(Cl)cc(Cl)c3)cc2)c(CC)c1CC(=O)O` [Example 13.8] the Ki was 15.5 nM. Work on `Cc1nn(Cc2ccc(NC(=O)OCc3ccccc3Cl)cc2)c(C)c1CC(=O)O` [Example 3.5] yielded a Ki of 16.8 nM. `CCc1nn(Cc2ccc(NC(=O)OCc3ccccc3Br)cc2)c(CC)c1CC(=O)O` [Example 3.11] gave a Ki of 3.5 nM.
